In patent US12060349B2, “Glucosylceramide synthase inhibitors” (Genzyme Corporation, priority 2012, dated 2024):
Read-outs that look alike come from different tables or passages of the source.

How the values were obtained:
B16 mouse melanoma cells = test: cell viability in the B16 cell-based assay (Viability, B16 IC50); details: concentration causing 50% cell death, values greater than 10 represent a lack of cell death, read-out: Viability, B16 IC50
Summary of the method: (§1)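 Both lines undergo the phenotypic GM3 assay, and viability is recorded from that same cell-based run.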

C32 human melanoma cells = test: cell viability in the C32 cell-based assay (Viability, C32 IC50)
Summary of the method: as §1

[1] = target: T1, glucosylceramide synthase (Homo sapiens, UniProt Q16739); test: microsomal assay measuring conversion of ceramide to glucosylceramide by HPLC (GCS IC50); assay type: biochemical; details: concentration causing 50% inhibition of glucosylceramide synthase activity
T1 construct: Microsomes were isolated from A375 human melanoma cells; endogenous in cells; host or cells: A375 human melanoma cells (microsomal fraction, 100,000 g pellet)
T1 sequence (Q16739 1-394): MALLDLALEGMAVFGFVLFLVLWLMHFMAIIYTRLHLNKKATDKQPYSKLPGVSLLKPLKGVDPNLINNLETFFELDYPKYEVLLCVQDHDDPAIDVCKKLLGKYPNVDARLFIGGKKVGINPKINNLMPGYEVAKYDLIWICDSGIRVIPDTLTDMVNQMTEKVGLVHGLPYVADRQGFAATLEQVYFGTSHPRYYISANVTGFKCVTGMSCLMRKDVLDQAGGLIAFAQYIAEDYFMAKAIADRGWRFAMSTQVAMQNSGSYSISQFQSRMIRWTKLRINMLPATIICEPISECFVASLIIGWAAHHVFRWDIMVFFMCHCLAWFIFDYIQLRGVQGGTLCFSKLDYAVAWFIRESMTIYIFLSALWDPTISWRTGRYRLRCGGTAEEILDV
Summary of the method: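 Microsomal preparation assayed for glucosylceramide synthase by direct HPLC measurement of ceramide conversion to glucosylceramide. GCS IC50 is the compound concentration giving 50% inhibition of enzyme activity.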

[2] = test system: GM3 expression on the cell surface, C32 human melanoma cells; test: cell based phenotypic assay, cell surface GM3 by antibody mediated immunofluorescence, C32 (GM3 C32 IC50); details: 50% inhibition of GM3 expression on the cell surface
Summary of the method: as §1

[3] = test system: GM3 expression on the cell surface, B16 mouse melanoma cells; test: cell based phenotypic assay, cell surface GM3 by antibody mediated immunofluorescence, B16 (GM3 B16 IC50); details: 50% inhibition of GM3 expression on the cell surface
Summary of the method: as §1

[4] = Homo sapiens, C32, C32 cells; concentration causing 50% cell death; values greater than 10 represent a lack of cell death; read-out: Viability, C32 IC50
[5] = Homo sapiens, C32 human melanoma cells, read-out: GM3 C32 IC50
[6] = Mus musculus, B16 mouse melanoma cells, read-out: GM3 B16 IC50

SMILES | IC50 (B16 mouse melanoma cells; Mus musculus, B16, B16 cells) | IC50 (C32 human melanoma cells; [4]) | IC50 [1] | IC50 [2, 5] | IC50 [3, 6] | IC50 (C32 human melanoma cells; C32 cells; concentration causing 50% cell death; values greater than 10 represent a lack of cell death; read-out: Viability, C32 IC50) | IC50 ([2]; C32 human melanoma cells, read-out: GM3 C32 IC50) | IC50 ([3]; B16 mouse melanoma cells, read-out: GM3 B16 IC50) | IC50 (B16 mouse melanoma cells; B16 cells) | IC50 (C32 human melanoma cells; read-out: Viability, C32 IC50; C32 cells; concentration causing 50% cell death; values greater than 10 represent a lack of cell death) | IC50 ([2]; Homo sapiens, read-out: GM3 C32 IC50, C32 human melanoma cells) | IC50 ([3]; Mus musculus, read-out: GM3 B16 IC50, B16 mouse melanoma cells)
CCC1(NC(=O)NC(C)(C)C#Cc2ccc(CCOC)cc2)CN2CCC1CC2 (centres unmarked) [Example 325, 1-(3-Ethylquinuclidin-3-yl)-3-(4-(4-(2-methoxyethyl)phenyl)-2-methylbut-3-yn-2-yl)urea] | ≥ 10000 nM | ≥ 10000 nM | 92 nM | 7.94 nM | 399 nM | – | – | – | – | – | – | –
CN(C)C(=O)c1ccc(-c2ccc(C(C)(C)NC(=O)OC3CCN4CCC3CC4)cc2)cc1 (centres unmarked) [Example 259, 1-Azabicyclo[3.2.2]nonan-4-yl 2-(4′-(dimethylcarbamoyl)biphenyl-4-yl)propan-2-ylcarbamate] | ≥ 10000 nM | ≥ 10000 nM | 134 nM | 20.5 nM | 179 nM | – | – | – | – | – | – | –
CC(C)(NC(=O)OC1CCN2CCC1CC2)c1ccc(Oc2ccc(C(=O)N3CCOCC3)cc2)cc1 (centres unmarked) [Example 282, 1-Azabicyclo[3.2.2]nonan-4-yl 2-(4-(4-(morpholine-4-carbonyl)phenoxy)phenyl)propan-2-ylcarbamate] | ≥ 10000 nM | 3160 nM | 479 nM | 40.4 nM | 660 nM | – | – | – | – | – | – | –
CNC(=O)c1ccc(-c2ccc(C(C)(C)NC(=O)OC3CCN4CCC3CC4)cc2)cc1 (centres unmarked) [Example 254, 1-Azabicyclo[3.2.2]nonan-4-yl (2-(4′-(methylcarbamoyl)-[1,1′-biphenyl]-4-yl)propan-2-yl)carbamate] | ≥ 10000 nM | ≥ 10000 nM | 600 nM | 63.8 nM | 650 nM | – | – | – | – | – | – | –
COC1(C(=O)NC2(C)CCN3CCC2CC3)CCN(c2ncc(F)c(-c3ccc(OCCF)cc3)n2)CC1 (centres unmarked) [Example 102, 1-(5-Fluoro-4-(4-(2-fluoroethoxy)phenyl)pyrimidin-2-yl)-4-methoxy-N-(4-methyl-1-azabicyclo[3.2.2]nonan-4-yl)piperidine-4-carboxamide] | 2850 nM | 100 nM | 1.03 nM | 0.258 nM | 92.9 nM | – | – | – | – | – | – | –
COCCOCc1ccc(-c2nc(N3CCC(F)(C(=O)NC4(C)CCN5CCC4CC5)CC3)ncc2F)cc1 (single isomer, unassigned) [Example 78, 4-Fluoro-1-(5-fluoro-4-(4-((2-methoxyethoxy)methyl)phenyl)pyrimidin-2-yl)-N-(4-methyl-1-azabicyclo[3.2.2]nonan-4-yl)piperidine-4-carboxamide] | 3540 nM | – | 64.7 nM | – | – | 1000 nM | 4.87 nM | 3120 nM | – | – | – | –
CN(C)C(=O)c1ccc(-c2ccc(C(C)(C)NC(=O)N3CCN4CCC3CC4)cc2)cc1 [Example 260, N-(2-(4′-(Dimethylcarbamoyl)biphenyl-4-yl)propan-2-yl)-1,4-diazabicyclo[3.2.2]nonane-4-carboxamide] | ≥ 10000 nM | ≥ 10000 nM | 8550 nM | 302 nM | 1640 nM | – | – | – | – | – | – | –
C#CC1CN(C(=O)NC2(C)CCN3CCC2CC3)CCN1c1nccc(-c2ccc(COC)cc2)n1 (centres unmarked) [Example 153, 3-Ethynyl-4-(4-(4-(methoxymethyl)phenyl)pyrimidin-2-yl)-N-(4-methyl-1-azabicyclo[3.2.2]nonan-4-yl)piperazine-1-carboxamide] | ≥ 10000 nM | 1000 nM | 53.4 nM | 11.7 nM | 2640 nM | – | – | – | – | – | – | –
COCC(C)(C)c1ccc(C#CC(C)(C)NC(=O)NC2(C)CN3CCC2CC3)cc1 (centres unmarked) [Example 339, 1-(4-(4-(1-Methoxy-2-methylpropan-2-yl)phenyl)-2-methylbut-3-yn-2-yl)-3-(3-methylquinuclidin-3-yl)urea] | ≥ 10000 nM | ≥ 10000 nM | 136 nM | 25.7 nM | 720 nM | – | – | – | – | – | – | –
O=C(OC1CN2CCC1CC2)N1CCN(c2cccc(-c3ccccc3)c2)CC1 (centres unmarked) [Example 18, Quinuclidin-3-yl 4-([1,1′-biphenyl]-3-yl)piperazine-1-carboxylate] | – | – | 551 nM | – | – | – | – | – | 8360 nM | ≥ 10000 nM | 563 nM | 2040 nM
